Converted amounts (≈) assume the structure as drawn. Read-outs that look alike come from different tables or passages of the source.
Tests used:
Actinomyces viscosus = assay: Minimum concentration which will completely inhibit growth, Actinomyces viscosus; assay type: cell-based; settings: A.viscosus, growth medium, read-out: Min. Conc. (minimum concentration which will completely inhibit growth)
S. mutans = assay: Minimum concentration which will completely inhibit growth, S. mutans; assay type: cell-based; settings: Streptococcus mutans, procedure of Example 6
Method: 5-n-octanoyl-2',3',4',5',6'pentafluorosalicylanilide is tested for effectiveness against S. mutans essentially in accordance with the procedure of Example 6.

A.viscosus [1] = assay: Bactericidal effects against established dental plaque (nichrome wires), A.viscosus; assay type: cell-based; settings: Actinomyces viscosus, 2 min, read-out: Minimum Concentration Required for Complete Bactericidal Effect
Method: (§1) In vitro plaques are grown on no. 20 nichrome wires by fixing the wires to culture tube closures to suspend the wires into a complex culture medium supplemented with 5% by wt of sucrose and 0.005% sodium carbonate. Separate cultures are initially inoculated with A.viscosus and S.mutans and the wires are transferred daily to fresh medium until the wire-adherent microorganisms form well established plaques. All cultures are incubated at 37 degrees C. Plaque coated wires are then immersed in a solution of composition to be tested. The compositions tested are AN-10 and Chlorhexidine. The immersion time is two minutes. The solution in which the composition is dissolved is the same solution used to dissolve the composition in the previous example. The plaque is then rinsed with distilled water and transferred to fresh medium. The lack of growth in the fresh medium is considered as an indication that the microorganisms have been killed. Further plaque coated wires are treated as previously described until sufficient information is obtained to determine the minimum concentration of composition required to kill the microorganisms.

A.naeslundii = assay: Plaque growth inhibition in vitro on bovine tooth slabs, A.naeslundii; assay type: cell-based, Actinomyces naeslundii; settings: for IC50: Actinomyces naeslundii, 2 min slab exposure, about 24 h incubation, anaerobic, reliability + or -80% or better
Method: (§2) The composition prepared in example 2 above is tested in vitro for plaque inhibition in comparison with prior art compounds. The test used is set forth in detail in Comparison of Antiplaque Agents Using an In Vitro Assay Reflecting Oral Conditions by R. T. Evans et al, Journal of Dental Research, June 1977.
(§3) In summary bovine mandibles, obtained immediately after slaughter, are cut into 4×8 mm slabs and sterilized in a 0.15 M NaCl solution buffered at a pH of 7.5 with 0.02 M sodium phosphate (PBS soln.) Before use the slabs are coated with sterile saliva and then rinsed twice in sterile PBS. The slabs are then placed in small plastic petri dishes containing various concentrations of the compositions to be tested. The test solution used in accordance is a solution of the composition in a mixture of 20% by volume of ethanol, 40% by volume of propylene glycol and 40% by volume of a pH 8 aqueous buffer solution containing mono and di sodium phosphates. The slabs are left in the solution of the composition for two minutes and then rinsed in sterile PBS solution. After rinsing, each slab is placed in a 10×75 mm cotton stoppered glass culture tube containing 1 ml of sucrose-broth culture medium which is then innoculated with a 24 hour culture of the desired microorganism standardized to an optical density (OD) 540 of 1.0 for A. naeslundii and S. sanguis and of 0.75 for A. viscosus and S. mutans. 50 μl of the inoculation medium is used. A. viscosus is incubated under aerobic conditions and the others are incubated under anaerobic conditions (5% CO2 and 95% H2). After incubation for about 24 hours the nonadherent organisms are removed and the tube is rinsed twice with 0.5 ml of PBS and the washings combined with the nonadherent organisms.
(§4) The tooth slabs are then transferred to 1 ml of 0.1 N NaOH and 1 ml of 0.1 N NaOH is also added to the glass culture tubes. The slabs and tubes are then sonically agitated, if necessary to suspend the adherent organisms. The optical density of each of the three fractions is then measured on a spectophotometer. The tests are repeated with varying concentrations of the compositions being tested until growth inhibition curves can be developed. The 50% growth inhibition dosages (ID50) are then determined with a reliability of + or -80% or better.

S.mutans [2] = assay: Plaque growth inhibition in vitro on bovine tooth slabs, S.mutans; assay type: cell-based, Streptococcus mutans; settings: for IC50: Streptococcus mutans, 2 min slab exposure, about 24 h incubation, anaerobic, reliability + or -80% or better
Method: as §2, §3, §4

A.viscosus [3] = assay: Plaque growth inhibition in vitro on bovine tooth slabs, A.viscosus; assay type: cell-based, Actinomyces viscosus; settings: for IC50: Actinomyces viscosus, 2 min slab exposure, about 24 h incubation, aerobic, reliability + or -80% or better
Method: as §2, §3, §4

S.sanguis = assay: Plaque growth inhibition in vitro on bovine tooth slabs, S.sanguis; assay type: cell-based, Streptoccus sanguis; settings: for IC50: 2 min slab exposure, about 24 h incubation, anaerobic, reliability + or -80% or better; for % Inhibition @ Mol.Conc.: @ 1 × 10^-3 Mol.Conc.
Method: as §2, §3, §4

[4] = Acute oral toxicity of AN-10 (single dose, gavage); assay type: in vivo
Method: Sixteen female white rats averaging 265 grams in weight were fasted overnight and divided into four groups of four animals each. In one group each animal received, by gavage tube, 4 ml of an aqueous solution of 1% methylcellulose, the drug delivery vehicle. This group was the control group. The remaining three groups received doses of 50, 750, and 2000 mg/kg of AN-10 in 4-ml aqueous suspension, respectively.
This animal had received the 50 mg/kg dose.
From this experiment it can be concluded that the LD50 for AN-10 by the single dose oral route is greater than 2000 mg/kg in Osborne-Mendel white rats.

S.mutans [5] = assay: Bactericidal effects against established dental plaque (nichrome wires), S.mutans; assay type: cell-based; settings: Streptococcus mutans, 2 min, read-out: Minimum Concentration Required for Complete Bactericidal Effect
Method: as §1

Staphylococcus aureus = assay: Minimum concentration to completely inhibit growth, Staphylococcus aureus; assay type: cell-based; settings: procedure of Example 6
Method: AN-10 is tested for effectiveness against the bacterium Staphylococcus aureus in accordance with the procedure set forth in Example 6.

[6] = background statement; cited from earlier work
[7] = A.viscosus established plaque, immersion time two minutes
[8] = S.mutans established plaque, immersion time two minutes

Work on CCCCCCCCCC(=O)c1ccc(O)c(C(=O)Nc2ccc(Br)cc2)c1 [5-n-decoyl-4'-bromosalicylanilide] yielded an MIC (Actinomyces viscosus) of 0.125 µg/mL (≈ 0.28 µM).

With CCCCCCCCCCCC(=O)c1ccc(O)c(C(=O)Nc2cccc(C(F)(F)F)c2)c1 [5-n-dodecoyl-3'-trifluoromethylsaliclyanilide] the MIC (Actinomyces viscosus) was 0.5 to 1 µg/mL (≈ 1.08 to 2.16 µM).

CCCCCCCCCCCC(=O)c1ccc(O)c(C(=O)Nc2ccc(Br)cc2)c1 [5-n-dodecoyl-4'-bromosalicylanilide] gave an MIC (Actinomyces viscosus) of 0.05 µg/mL (≈ 0.105 µM).

For CCCCCCCCCCCC(=O)c1ccc(O)c(C(=O)Nc2ccc([N+](=O)[O-])cc2)c1 [5-n-dodecoyl-4'-nitrosalicylanilide], the MIC (Actinomyces viscosus) was 0.05 µg/mL (≈ 0.113 µM).

In the case of CCCCCCCC(=O)c1ccc(O)c(C(=O)Nc2c(F)c(F)c(F)c(F)c2F)c1 [5-n-octanoyl-2',3',4',5',6'pentafluorosalicylanilide], the MIC (S. mutans) is reported as ~0.5 µg/mL (≈ 1.16 µM).

Work on CCCCCCCC(=O)c1ccc(O)c(C(=O)Nc2ccc([N+](=O)[O-])cc2)c1 [5-n-octoyl-4'-nitrosalicylanilide] yielded an MIC (Actinomyces viscosus) of 0.125 µg/mL (≈ 0.325 µM).

In the case of CCCCCCCCCC(=O)c1ccc(O)c(C(=O)Nc2ccc([N+](=O)[O-])cc2)c1 [AN-10, 5-n-decanoyl-4'-nitrosalicylanilide], the MBC (A.viscosus [1]; [7]) is reported as 125 µg/mL (≈ 303 µM), the “% Inhibition @ Mol.Conc.” value (A.naeslundii; @ 3.3 × 10^-4 Mol.Conc.) is reported as 96% and the IC50 (A.naeslundii; read-out: ID50 Adherent Growth) is reported as 43 µM. For the same molecule, the IC50 (A.naeslundii; read-out: ID50 Total Growth) was 83 µM, the “% Inhibition @ Mol.Conc.” value (S.mutans [2]; @ 1 × 10^-3 Mol.Conc.) was 59% and the IC50 (S.mutans [2]; read-out: ID50 Adherent Growth) was 23000 µM. The IC50 (S.mutans [2]; read-out: ID50 Total Growth) was 1600 µM, the “% Inhibition @ Mol.Conc.” value (A.viscosus [3]; @ 1 × 10^-4 Mol.Conc.) was 96% and the IC50 (A.viscosus [3]; read-out: ID50 Adherent Growth) was 70 µM. It also gave an IC50 (A.viscosus [3]; read-out: ID50 Total Growth) of 73 µM, an IC50 (S.sanguis; read-out: ID50 Adherent Growth) of 670 µM and an IC50 (S.sanguis; read-out: ID50 Total Growth) of 370 µM. For the same molecule, the “% Inhibition @ Mol.Conc.” value (S.sanguis) was 86%, the “deaths within the first week following single dose” value ([4]; 50, 750 and 2000 mg/kg oral, four rats each, the one death (50 mg/kg) attributed to trauma of administration) was “only one animal died” and the LD50 ([4]; rat, in vivo, single dose oral route, female Osborne-Mendel white rats) was > 2000 mg/kg. The MBC (S.mutans [5]; [8]) was 62.5 µg/mL (≈ 152 µM) and the MIC (Staphylococcus aureus) was < 10 µg/mL.

For [H]/N=C(\N/C(=N/[H])NCCCCCCNC(=N)NC(=N)Nc1ccc(Cl)cc1)Nc1ccc(Cl)cc1 [CLHX, Chlorhexidine], the MBC (A.viscosus [1]; [7]) was 500 µg/mL (≈ 989 µM), the “% Inhibition @ Mol.Conc.” value (A.naeslundii; @ 1 × 10^-3 Mol.Conc.) was 78% and the IC50 (A.naeslundii; read-out: ID50 Adherent Growth) was 5100 µM. For the same molecule, the IC50 (A.naeslundii; read-out: ID50 Total Growth) was 4400 µM, the “% Inhibition @ Mol.Conc.” value (S.mutans [2]; @ 1 × 10^-3 Mol.Conc.) was 95% and the IC50 (S.mutans [2]; read-out: ID50 Adherent Growth) was 97 µM. For the same molecule, the IC50 (S.mutans [2]; read-out: ID50 Total Growth) was 86 µM, the “% Inhibition @ Mol.Conc.” value (A.viscosus [3]; @ 1 × 10^-3 Mol.Conc.) was 85% and the IC50 (A.viscosus [3]; read-out: ID50 Adherent Growth) was 29 µM. The IC50 (A.viscosus [3]; read-out: ID50 Total Growth) was 23 µM, the IC50 (S.sanguis; read-out: ID50 Adherent Growth) was 85000 µM and the IC50 (S.sanguis; read-out: ID50 Total Growth) was 390 µM. For the same molecule, the “% Inhibition @ Mol.Conc.” value (S.sanguis) was 70% and the MBC (S.mutans [5]; [8]) was 250 µg/mL (≈ 495 µM).

For O=C(Nc1cccc(C(F)(F)F)c1)c1cc(Br)cc(Br)c1O [SBF-1, Fluorophene], the “% Inhibition @ Mol.Conc.” value (S.mutans [2]; @ 2 × 10^-3 Mol.Conc.) was 86% and the “% Inhibition @ Mol.Conc.” value (A.viscosus [3]; @ 3.3 × 10^-3 Mol.Conc.) was 65%.

For O=C(Nc1ccc(Br)cc1)c1cc(Br)cc(Br)c1O [TBS, Tribromosalan], the MBC (A.viscosus [1]) was 500 µg/mL (≈ 1110 µM), the “% Inhibition @ Mol.Conc.” value (A.naeslundii; @ 1.5 × 10^-3 Mol.Conc.) was 86% and the “% Inhibition @ Mol.Conc.” value (S.mutans [2]; @ 1.5 × 10^-3 Mol.Conc.) was 46%. For the same molecule, the “% Inhibition @ Mol.Conc.” value (A.viscosus [3]; @ 1 × 10^-3 Mol.Conc.) was 53%, the “% Inhibition @ Mol.Conc.” value (S.sanguis) was 46% and the MBC (S.mutans [5]) was 1000 µg/mL (≈ 2220 µM).

In the case of tetrachlorosalicylanilide, the “allergic reactions in man” value [6] is given as “allergic reactions in man”.
